Like-named read-outs stand apart in the source and are kept apart here.
Tests used:
HCC-44 = test: CellTiterGlo Cell Proliferation Assay, HCC-44; type: cell-based; details: Homo sapiens, HCC44, KRas G12C, Lung, 96 hr, read-out: IC50 (μM) in 2 D cell proliferation
Method: (§1) A panel of tumor cell lines harboring KRas G12C or other KRas mutations are collected (Table 6). All cell lines are from ATCC or other sources indicated.
(§2) Typically cells are cultured in RPMI1640 or Dulbecco's modified Eagle's medium (DMEM, GIBCO) supplemented with 10% FBS (GIBCO, Invitrogen). For 2D culture cells (4×10^3/well) maintained in growth medium described above, are plated onto 96 well tissue culture plates Corning® Cat. 3603) a day before the treatment. For 3D culture 8000 cells/well are seeded onto 96 well ultra-low attachment tissue culture plates (Corning, #3474). The cells are treated compound for 96 hr, and then are analyzed for viability using the CellTiterGlo® Luminescent Cell Viability Assay® (Promega #G7572 for 2D and Promega #G9683 for 3D cultures) according to manufacturer's instructions and an EnVision™ plate reader. Nonlinear regression and sigmoidal dose-response curves are used to calculate the half maximal inhibitory concentration (IC50) with GraphPad Prism 4® software.

SW1463 = test: CellTiterGlo Cell Proliferation Assay, SW1463; type: cell-based; details: Homo sapiens, KRas G12C, colon, 96 hr, read-out: IC50 (μM) in 2 D cell proliferation
Method: as §1, §2

D122-96 = test: CellTiterGlo Cell Proliferation Assay, D122-96; type: cell-based; details: KRas G12C, Lung (mouse), 96 hr
Method: as §1, §2

H358 = test: CellTiterGlo Cell Proliferation Assay, H358; type: cell-based; details: Homo sapiens, NCI-H358, KRas G12C, Lung, 96 hr
Method: as §1, §2

SW837 = test: CellTiterGlo Cell Proliferation Assay, SW837; type: cell-based; details: Homo sapiens, KRas G12C, Rectum, 96 hr
Method: as §1, §2

Kyse-410 = test: CellTiterGlo Cell Proliferation Assay, Kyse-410; type: cell-based; details: Homo sapiens, KRas G12C, Esophagus, 96 hr
Method: as §1, §2

MIA Paca-2 = test: Combination 4 day growth assay (Cell TiterGlo), MIA Paca-2; type: cell-based; details: Homo sapiens, MIA PaCa-2, 96 h, single treatment, read-out: Absolute IC50
Method: Cell lines for this study are obtained from ATCC and grown under ATCC recommended conditions, except for LXFA-983L, which is obtained from Oncotest/Charles Rivers Laboratories, Wilmington, Mass. and D122-96, which is obtained from L. Eisenbach (Weizman Institute of Science, Rehovot, Israel)—both grown under recommended conditions. […] The proliferation assay is performed as a 4 day growth assay using Cell TiterGlo® as the readout. Briefly, cells are plated in 96-well cell culture plates and allowed to adhere overnight at 37° C. The following day, cells are treated with compounds, either single treatments or combination treatments. First, the testing compounds are serially diluted in DMSO, followed by dilution into media as a 5× concentration with 1% DMSO, and finally added to cells in media to dilute to 1×. The cells are incubated at 37° C. for 4 more days. At the end of the incubation period, Cell TiterGlo® reagent is mixed and added to the wells. After 10 minutes, the luminescence is read by a Perkin Elmer Envision instrument. Absolute IC50 values generated by a 4-parameter logistics model for the single and combination treatments are generated, followed by combination indexes for each combination treatment and cell line. The combination IC50 values are adjusted based on the total concentration of each compound when added together. […] The combination index (CI) measures the degree to which the potency of a combination therapy differs from the expected-if-additive potency and is based on the Loewe definition of additivity.
[formula] Where • CAy and CBy are the concentrations of therapies A and B that produce an effect, y, when given in combination • ICAy and ICBy are the concentrations of A and B that produce an effect, y, when given individually The biological interpretation of the combination index is as follows: synergistic if the combination index <0.5, additive if the combination index is between 0.5 and 2, and antagonistic if the combination index is >2.

Miapaca-2 = test: CellTiterGlo Cell Proliferation Assay, Miapaca-2; type: cell-based; details: Homo sapiens, MIA PaCa-2, KRas G12C, Pancreas, 96 hr
Method: as §1, §2

EL2661 (PDX) = test: Anti-tumor growth activity, EL2661 lung PDX; type: in vivo; details: 28 Day, negative = regression
H460 = test: CellTiterGlo Cell Proliferation Assay, H460; type: cell-based; details: Homo sapiens, NCI-H460, KRas Q61H, lung, 96 hr
Method: as §1, §2

[1] = read-out: IC50 (μM) in 2 D cell proliferation
[2] = read-out: IC50 (μM) in 3 D spheroid cell proliferation

For C=CC(=O)N1CCN(c2ncnc3c(F)c(-c4ccc(F)c5sc(N)nc45)c(Cl)cc23)CC1 [Example 1, 1-{4-[7-(2-Amino-7-fluoro-1,3-benzothiazol-4-yl)-6-chloro-8-fluoroquinazolin-4-yl]piperazin-1-yl}prop-2-en-1-one], the IC50 (HCC-44) was 0.221 µM, the IC50 (SW1463) was 0.013 µM and the IC50 (D122-96; [1]) was 0.126 µM. For the same compound, the IC50 (D122-96; [2]) was 0.069 µM, the IC50 (H358; [1]) was 0.041 µM and the IC50 (H358; [2]) was 0.026 µM. For the same compound, the IC50 (SW837; [1]) was 0.169 µM, the IC50 (SW837; [2]) was 0.126 µM and the IC50 (Kyse-410; [1]) was 2.94 µM. For the same compound, the IC50 (Kyse-410; [2]) was 0.471 µM, the IC50 (MIA Paca-2) was 22 nM and the IC50 (Miapaca-2; [1]) was 0.014 µM. The IC50 (Miapaca-2; [2]) was 0.086 µM, the “Tumor Growth Inhibition (%) or Regression (−%)” value (shortened to “Tumor Growth Inhibition … (−%)”) (EL2661 (PDX); 10 mg/kg QD) was 46.5% and the “Tumor Growth Inhibition … (−%)” value (EL2661 (PDX); 20 mg/kg QD) was 58.6%. For the same compound, the “Tumor Growth Inhibition … (−%)” value (EL2661 (PDX); 30 mg/kg QD) was 97.6%, the “Tumor Growth Inhibition … (−%)” value (EL2661 (PDX); 50 mg/kg QD) was −8.6% and the IC50 (H460; [1]) was 11.6 µM. It also gave an IC50 (H460; [2]) of 6.07 µM.

Reference: patent US10968214B2, “KRas G12C inhibitors” (Eli Lilly and Company, priority 2018, dated 2021)
